# Where two headings read alike, the source gives them in different places.
# Assays:
# Format in all cases: in vivo
# [1] = tested on: potato leafhopper (Empoasca fabae (Harris)); assay: Test D: control of potato leafhopper through contact and/or systemic means; conditions: 144 h
# Protocol: (§1) Formulation and Spray Methodology for Tests A-H
# (§2) Test compounds were formulated using a solution containing 10% acetone, 90% water and 300 ppm Activator 90® non-ionic surfactant (Loveland Products, Loveland, Colo., USA). The formulated compounds were applied in 1 mL of liquid through an atomizer nozzle positioned 1.27 cm (0.5 inches) above the top of each test unit. Test compounds were sprayed at the rates indicated, and each test was replicated three times.
# […] White sand was added to the top of the soil, and one of the primary leaves was excised prior to application of the test compound.
# Test compounds were formulated and sprayed at 250, 50 and 10 ppm. After spraying of the formulated test compound, the test units were allowed to dry for 1 hour before they were post-infested with 5 potato leafhoppers (18-to-21-day-old adults). A black, screened cap was placed on the top of the test unit, and the test units were held for 6 days in a growth chamber at 20° C. and 70% relative humidity. Each test unit was then visually assessed for insect mortality.
# [2] = tested on: green peach aphid (Myzus persicae (Sulzer)); assay: Test E: control of green peach aphid through contact and/or systemic means; conditions: 144 h
# Protocol: as §1, §2
# For evaluating control of green peach aphid (Myzus persicae (Sulzer)) through contact and/or systemic means, the test unit consisted of a small open container with a 12-15-day-old radish plant inside. This was pre-infested by placing on a leaf of the test plant 30-40 aphids on a piece of leaf excised from a culture plant (cut-leaf method). The aphids moved onto the test plant as the leaf piece desiccated. After pre-infestation, the soil of the test unit was covered with a layer of sand.
# Test compounds were formulated and sprayed at 250, 50 and 10 ppm. After spraying of the formulated test compound, each test unit was allowed to dry for 1 hour and then a black, screened cap was placed on top. The test units were held for 6 days in a growth chamber at 19-21° C. and 50-70% relative humidity. Each test unit was then visually assessed for insect mortality.
# [3] = tested on: cotton melon aphid (Aphis gossypii (Glover)); assay: Test F: control of cotton melon aphid through contact and/or systemic means; conditions: 144 h
# Protocol: as §1, §2
# […] This was pre-infested with 30-40 insects on a piece of leaf according to the cut-leaf method, and the soil of the test unit was covered with a layer of sand.
# Test compounds were formulated and sprayed at 250, 50 and 10 ppm. After spraying, the test units were maintained in a growth chamber for 6 days at 19° C. and 70% relative humidity. Each test unit was then visually assessed for insect mortality.
# [4] = tested on: sweetpotato whitefly (Bemisia tabaci (Gennadius)); assay: Test G: control of sweetpotato whitefly through contact and/or systemic means; conditions: 312 h
# Protocol: as §1, §2
# For evaluating control of the sweetpotato whitefly (Bemisia tabaci (Gennadius)) through contact and/or systemic means, the test unit consisted of a small open container with a 12-14-day-old cotton plant inside. Prior to the spray application, both cotyledons were removed from the plant, leaving one true leaf for the assay. Adult whiteflies were allowed to lay eggs on the plant and then were removed from the test unit. Cotton plants infested with at least 15 eggs were submitted to the test for spraying.
# Test compounds were formulated and sprayed at 250, 50 and 10 ppm. After spraying, the test units were allowed to dry for 1 hour. The cylinders were then removed, and the units were taken to a growth chamber and held for 13 days at 28° C. and 50-70% relative humidity. Each test unit was then visually assessed for insect mortality.
# [5] = 10 ppm spray, 6 days, read-out: mortality
# [6] = 50 ppm spray, 6 days, read-out: mortality
structure (smiles),measurement,setting,value
C[C@H](C[S+](C)[O-])NC(=O)c1ccc(C2=NOC(c3cc(Cl)c(F)c(Cl)c3)(C(F)(F)F)C2)c2ccncc12 (stereo partly shown) [Compound 14],mortality at 50 ppm,[1],≥ 80%
C[S+]([O-])CCNC(=O)c1ccc(C2=NOC(c3cc(Cl)c(F)c(Cl)c3)(C(F)(F)F)C2)c2ccncc12 (stereo not shown) [Compound 11],mortality at 50 ppm,[2],≥ 80%
same,mortality at 50 ppm,[3],≥ 80%
same,mortality at 10 ppm,[1],≥ 80%
same,mortality at 50 ppm,[1],≥ 80%
CSC[C@@H](C)NC(=O)c1ccc(C2=NOC(c3cc(Cl)c(F)c(Cl)c3)(C(F)(F)F)C2)c2ccncc12 (stereo partly shown) [Compound 8],mortality at 50 ppm,[3],≥ 80%
"O=C(NCC1CC1)c1ccc(C2=NOC(c3cccc(C(F)(F)F)c3)(C(F)(F)F)C2)c2ccncc12 (racemic) [Compound 17, N-(cyclopropylmethyl)-5-[4,5-dihydro-5-(trifluoromethyl)-5-[3-(trifluoromethyl)phenyl]-3-isoxazolyl]-8-isoquinolinecarboxamide]",mortality at 10 ppm,[2]; [5],≥ 80%
same,mortality at 50 ppm,[2]; [6],≥ 80%
same,mortality at 10 ppm,[3]; [5],≥ 80%
same,mortality at 50 ppm,[3]; [6],≥ 80%
C[C@H](CSCC(F)(F)F)NC(=O)c1ccc(C2=NOC(c3cc(Cl)c(F)c(Cl)c3)(C(F)(F)F)C2)c2ccncc12 (stereo partly shown) [Compound 62],mortality at 50 ppm,[3],≥ 80%
same,mortality at 50 ppm,[4],≥ 50%
same,mortality at 50 ppm,[1],≥ 80%
CNC(=O)c1ccc(C2=NOC(c3cc(Cl)c(F)c(Cl)c3)(C(F)(F)F)C2)c2ccncc12 (stereo not shown) [Compound 27],mortality at 50 ppm,[2],≥ 80%
same,mortality at 50 ppm,[3],≥ 80%
"O=C(NCC1CC1)c1ccc(C2=NOC(c3cc(Cl)c(F)c(Cl)c3)(C(F)(F)F)C2)c2ccncc12 (stereo not shown) [Compound 3, N-(cyclopropylmethyl)-5-[5-(3,5-dichloro-4-fluorophenyl)-4,5-dihydro-5-(trifluoromethyl)-3-isoxazolyl]-8-isoquinolinecarboxamide]",mortality at 10 ppm,[2],≥ 80%
same,mortality at 50 ppm,[2],≥ 80%
same,mortality at 10 ppm,[3],≥ 80%
same,mortality at 50 ppm,[3],≥ 80%
same,mortality at 10 ppm,[4],≥ 50%
same,mortality at 50 ppm,[4],≥ 50%
C[C@@H](NC(=O)c1ccc(C2=NOC(c3cc(Cl)c(F)c(Cl)c3)(C(F)(F)F)C2)c2ccncc12)C(=O)NCC(F)(F)F (stereo partly shown) [Compound 56],mortality at 50 ppm,[2],≥ 80%
same,mortality at 50 ppm,[3],≥ 80%
same,mortality at 50 ppm,[4],≥ 50%
CS(=O)(=O)CCNC(=O)c1ccc(C2=NOC(c3cc(Cl)c(F)c(Cl)c3)(C(F)(F)F)C2)c2ccncc12 (stereo not shown) [Compound 12],mortality at 50 ppm,[3],≥ 80%
N#CC1(CNC(=O)c2ccc(C3=NOC(c4cc(Cl)c(F)c(Cl)c4)(C(F)(F)F)C3)c3ccncc23)CC1 (stereo not shown) [Compound 10],mortality at 50 ppm,[2],≥ 80%
same,mortality at 50 ppm,[3],≥ 80%
same,mortality at 10 ppm,[4],≥ 50%
same,mortality at 50 ppm,[4],≥ 50%
same,mortality at 50 ppm,[1],≥ 80%
"O=C(NCC1CC1)c1ccc(C2=NOC(c3cc(Cl)cc(C(F)(F)F)c3)(C(F)(F)F)C2)c2ccncc12 (stereo not shown) [Compound 36, 5-[5-[3-chloro-5-(trifluoromethyl)phenyl]-4,5-dihydro-5-(trifluoromethyl)-3-isoxazolyl]-N-(cyclopropylmethyl)-8-isoquinolinecarboxamide]",mortality at 10 ppm,[2],≥ 80%
same,mortality at 50 ppm,[2],≥ 80%
same,mortality at 10 ppm,[3],≥ 80%
same,mortality at 50 ppm,[3],≥ 80%
same,mortality at 10 ppm,[4],≥ 50%
same,mortality at 50 ppm,[4],≥ 50%
same,mortality at 10 ppm,[1],≥ 80%
same,mortality at 50 ppm,[1],≥ 80%
CS(=O)(=O)CCNC(=O)c1ccc(C2=NOC(c3cccc(C(F)(F)F)c3)(C(F)(F)F)C2)c2ccncc12 (stereo not shown) [Compound 19],mortality at 50 ppm,[3]; [6],≥ 80%
same,mortality at 50 ppm,"[4]; 50 ppm spray, 13 days, read-out: mortality",≥ 50%
"CC(C)(C)NC(=O)c1ccc(C2=NOC(c3cc(Cl)c(F)c(Cl)c3)(C(F)(F)F)C2)c2ccncc12 (stereo not shown) [Compound 2, 5-[5-(3,5-dichloro-4-fluorophenyl)-4,5-dihydro-5-(trifluoromethyl)-3-isoxazolyl]-N-(1,1-dimethylethyl)-8-isoquinolinecarboxamide]",mortality at 50 ppm,[2],≥ 80%
same,mortality at 250 ppm,[2],≥ 80%
same,mortality at 10 ppm,[3],≥ 80%
same,mortality at 50 ppm,[3],≥ 80%
same,mortality at 250 ppm,[3],≥ 80%
same,mortality at 10 ppm,[4],≥ 50%
same,mortality at 50 ppm,[4],≥ 50%
same,mortality at 250 ppm,[4],≥ 50%
same,mortality at 50 ppm,[1],≥ 80%
same,mortality at 250 ppm,[1],≥ 80%
"CS(=O)(=O)N1CC(NC(=O)c2ccc(C3=NOC(c4cc(Cl)c(F)c(Cl)c4)(C(F)(F)F)C3)c3ccncc23)C1 (stereo not shown) [Compound 21, 5-[5-(3,5-dichloro-4-fluorophenyl)-4,5-dihydro-5-(trifluoromethyl)-3-isoxazolyl]-N-[1-(methylsulfonyl)-3-azetidinyl]-8-isoquinolinecarboxamide]",mortality at 50 ppm,[3],≥ 80%
same,mortality at 50 ppm,[4],≥ 50%
same,mortality at 50 ppm,[1],≥ 80%
C[C@@H](NC(=O)c1ccc(C2=NOC(c3cccc(C(F)(F)F)c3)(C(F)(F)F)C2)c2ccncc12)C(N)=O (stereo partly shown) [Compound 25],mortality at 50 ppm,[3]; [6],≥ 80%
COCC(C)NC(=O)c1ccc(C2=NOC(c3cc(Cl)c(F)c(Cl)c3)(C(F)(F)F)C2)c2ccncc12 (stereo not shown) [Compound 20],mortality at 10 ppm,[2],≥ 80%
same,mortality at 50 ppm,[2],≥ 80%
same,mortality at 10 ppm,[3],≥ 80%
same,mortality at 50 ppm,[3],≥ 80%
same,mortality at 10 ppm,[4],≥ 50%
same,mortality at 50 ppm,[4],≥ 50%
same,mortality at 50 ppm,[1],≥ 80%
"O=C(NC1CC1)c1ccc(C2=NOC(c3cc(Cl)c(F)c(Cl)c3)(C(F)(F)F)C2)c2ccncc12 (stereo not shown) [Compound 23, N-cyclopropyl-5-[5-(3,5-dichloro-4-fluorophenyl)-4,5-dihydro-5-(trifluoromethyl)-3-isoxazolyl]-8-isoquinolinecarboxamide]",mortality at 10 ppm,[2],≥ 80%
same,mortality at 50 ppm,[2],≥ 80%
same,mortality at 10 ppm,[3],≥ 80%
same,mortality at 50 ppm,[3],≥ 80%
same,mortality at 50 ppm,[1],≥ 80%
O=C(NC1CSC1)c1ccc(C2=NOC(c3cc(Cl)c(F)c(Cl)c3)(C(F)(F)F)C2)c2ccncc12 (stereo not shown) [Compound 43],mortality at 50 ppm,[3],≥ 80%
same,mortality at 50 ppm,[1],≥ 80%
O=C(NCc1cnccn1)c1ccc(C2=NOC(c3cc(Cl)c(F)c(Cl)c3)(C(F)(F)F)C2)c2ccncc12 (stereo not shown) [Compound 7],mortality at 50 ppm,[2],≥ 80%
same,mortality at 50 ppm,[3],≥ 80%
same,mortality at 50 ppm,[4],≥ 50%
same,mortality at 50 ppm,[1],≥ 80%
"O=C(NC1CC1)c1ccc(C2=NOC(c3cc(Cl)cc(Cl)c3)(C(F)(F)F)C2)c2ccncc12 (stereo not shown) [Compound 70, N-cyclopropyl-5-[5-(3,5-dichlorophenyl)-4,5-dihydro-5-(trifluoromethyl)-3-isoxazolyl]-8-isoquinolinecarboxamide]",mortality at 50 ppm,[2],≥ 80%
same,mortality at 10 ppm,[3],≥ 80%
same,mortality at 50 ppm,[3],≥ 80%
same,mortality at 50 ppm,[1],≥ 80%
"O=C(NC1CC1)c1ccc(C2=NO[C@@](c3cc(Cl)c(F)c(Cl)c3)(C(F)(F)F)C2)c2ccncc12 [Compound 82, S—N-cyclopropyl-5-[5-(3,5-dichloro-4-fluorophenyl)-4,5-dihydro-5-(trifluoromethyl)-3-isoxazolyl]-8-isoquinolinecarboxamide]",mortality at 10 ppm,[2],≥ 80%
same,mortality at 50 ppm,[2],≥ 80%
same,mortality at 10 ppm,[3],≥ 80%
same,mortality at 50 ppm,[3],≥ 80%
same,mortality at 50 ppm,[1],≥ 80%
O=C(NCC1CCCO1)c1ccc(C2=NOC(c3cc(Cl)c(F)c(Cl)c3)(C(F)(F)F)C2)c2ccncc12 (stereo not shown) [Compound 26],mortality at 50 ppm,[3],≥ 80%
same,mortality at 50 ppm,[4],≥ 50%
"O=C(NC1CC1)c1ccc(C2=NOC(c3cccc(C(F)(F)F)c3)(C(F)(F)F)C2)c2ccncc12 (stereo not shown) [Compound 16, N-cyclopropyl-5-[4,5-dihydro-5-(trifluoromethyl)-5-[3-(trifluoromethyl)phenyl]-3-isoxazolyl]-8-isoquinolinecarboxamide]",mortality at 50 ppm,[2]; [6],≥ 80%
"CCNC(=O)c1ccc(C2=NOC(c3cc(Cl)c(F)c(Cl)c3)(C(F)(F)F)C2)c2ccncc12 (stereo not shown) [Compound 46, 5-[5-(3,5-dichloro-4-fluorophenyl)-4,5-dihydro-5-(trifluoromethyl)-3-isoxazolyl]-N-ethyl-8 soquinolinecarboxamide]",mortality at 10 ppm,[3],≥ 80%
same,mortality at 50 ppm,[3],≥ 80%
C[S+]([O-])CCNC(=O)c1ccc(C2=NOC(c3cccc(C(F)(F)F)c3)(C(F)(F)F)C2)c2ccncc12 (stereo not shown) [Compound 30],mortality at 50 ppm,[3]; [6],≥ 80%
C[C@@H](NC(=O)c1ccc(C2=NOC(c3cc(Cl)cc(C(F)(F)F)c3)(C(F)(F)F)C2)c2ccncc12)C(N)=O (stereo partly shown) [Compound 40],mortality at 50 ppm,[3],≥ 80%
